Measured values taken from paper PMC5218480 (PLoS ONE, 2017).

System: MV-4-11 cells
Assay: Gene expression microarray analysis (Affymetrix PrimeView) and GSEA
Type: cell-based, human
Set-up: RFU PODN (11730768_x_at) / Fold change /veh PODN (11730768_x_at) / RFU LINC00158 (11744669_a_at) / Fold change /veh LINC00158 (11744669_a_at) / RFU DUSP10 (11751237_a_at) / Fold change /veh DUSP10 (11751237_a_at) / RFU ID3 (11757404_x_at) / Fold change /veh ID3 (11757404_x_at) / RFU PLEKHG5 (11737974_s_at) / Fold change /veh PLEKHG5 (11737974_s_at) / RFU LRRC4B (11730491_at) / Fold change /veh LRRC4B (11730491_at) / RFU GIMAP4 (11747438_a_at) / Fold change /veh GIMAP4 (11747438_a_at) / RFU KRT8 (11758183_x_at) / Fold change /veh KRT8 (11758183_x_at) / RFU CNN1 (11734310_a_at) / Fold change /veh CNN1 (11734310_a_at) / RFU VPS37D (11726825_at) / Fold change /veh VPS37D (11726825_at) / RFU C10orf10 (11716522_x_at) / Fold change /veh C10orf10 (11716522_x_at) / RFU KIR2DL2 /// KIR2DL4 /// KIR2DL5A /// KIR2DL5B /// KIR2DS1 /// KIR2DS2 /// KIR2DS3 /// KIR2DS4 /// KIR3DL3 /// KIR3DL3 /// KIR3DS1 (11738374_at) / Fold change /veh KIR2DL2 /// KIR2DL4 /// KIR2DL5A /// KIR2DL5B /// KIR2DS1 /// KIR2DS2 /// KIR2DS3 /// KIR2DS4 /// KIR3DL3 /// KIR3DL3 /// KIR3DS1 (11738374_at) / RFU C1QL1 (11718748_at) / Fold change /veh C1QL1 (11718748_at) / RFU TMPRSS4 (11747572_a_at) / Fold change /veh TMPRSS4 (11747572_a_at) / RFU HAMP (11756126_x_at) / Fold change /veh HAMP (11756126_x_at) / RFU RNFT2 (11725882_a_at) / Fold change /veh RNFT2 (11725882_a_at) / RFU NR4A2 (11747474_a_at) / Fold change /veh NR4A2 (11747474_a_at) / RFU ABCC12 (11746883_a_at) / Fold change /veh ABCC12 (11746883_a_at) / RFU TMEM136 (11760407_x_at) / Fold change /veh TMEM136 (11760407_x_at) / RFU CLDN22 /// WWC2 (11732394_at) / Fold change /veh CLDN22 /// WWC2 (11732394_at) / RFU HLA-DPB1 (11760878_x_at) / Fold change /veh HLA-DPB1 (11760878_x_at) / RFU SPINT1 (11716480_a_at) / Fold change /veh SPINT1 (11716480_a_at) / RFU GAP43 (11754022_s_at) / Fold change /veh GAP43 (11754022_s_at) / RFU A4GNT (11735810_at) / Fold change /veh A4GNT (11735810_at) / RFU PRB3 (11715151_x_at) / Fold change /veh PRB3 (11715151_x_at) / RFU TUBB4B (11761932_at) / Fold change /veh TUBB4B (11761932_at) / RFU CAPN14 (11732068_a_at) / Fold change /veh CAPN14 (11732068_a_at) / RFU TMCC2 (11721928_a_at) / Fold change /veh TMCC2 (11721928_a_at) / RFU IRGQ (11745062_a_at) / Fold change /veh IRGQ (11745062_a_at) / RFU FAM174B (11720279_a_at) / Fold change /veh FAM174B (11720279_a_at) / RFU TMPRSS4 (11748680_a_at) / Fold change /veh TMPRSS4 (11748680_a_at) / RFU FAM212B (11763350_a_at) / Fold change /veh FAM212B (11763350_a_at) / RFU PLEKHG5 (11743358_a_at) / Fold change /veh PLEKHG5 (11743358_a_at) / RFU ZSCAN30 (11745921_a_at) / Fold change /veh ZSCAN30 (11745921_a_at) / RFU CMKLR1 (11741424_a_at) / Fold change /veh CMKLR1 (11741424_a_at) / RFU LOC101060620 /// MAPK8IP1 (11723275_at) / Fold change /veh LOC101060620 /// MAPK8IP1 (11723275_at) / RFU SPTSSB (11747773_x_at) / Fold change /veh SPTSSB (11747773_x_at) / RFU PRSS12 (11739890_at) / Fold change /veh PRSS12 (11739890_at) / RFU BIN1 (11741810_x_at) / Fold change /veh BIN1 (11741810_x_at) / RFU WNT11 (11732464_a_at) / Fold change /veh WNT11 (11732464_a_at) / RFU C10orf10 (11716521_a_at) / Fold change /veh C10orf10 (11716521_a_at) / RFU C5orf56 (11738089_at) / Fold change /veh C5orf56 (11738089_at) / RFU CYB561 (11721691_x_at) / Fold change /veh CYB561 (11721691_x_at) / RFU ANKRD19P (11752326_a_at) / Fold change /veh ANKRD19P (11752326_a_at) / RFU OR2T12 /// OR2T33 /// OR2T8 (11738714_s_at) / Fold change /veh OR2T12 /// OR2T33 /// OR2T8 (11738714_s_at) / RFU VCAN (11748164_a_at) / Fold change /veh VCAN (11748164_a_at) / RFU JSRP1 (11732532_at) / Fold change /veh JSRP1 (11732532_at) / RFU KRTAP10-11 (11738290_x_at) / Fold change /veh KRTAP10-11 (11738290_x_at) / RFU MYO3A (11730013_a_at) / Fold change /veh MYO3A (11730013_a_at) / RFU EBF3 (11725865_a_at) / Fold change /veh EBF3 (11725865_a_at) / RFU CAMK2N1 (11719241_x_at) / Fold change /veh CAMK2N1 (11719241_x_at) / RFU C5orf56 (11738088_a_at) / Fold change /veh C5orf56 (11738088_a_at) / RFU OLFML3 (11715873_a_at) / Fold change /veh OLFML3 (11715873_a_at) / RFU LOC100653217 /// NTM (11731650_a_at) / Fold change /veh LOC100653217 /// NTM (11731650_a_at) / RFU MAPK11 (11762145_a_at) / Fold change /veh MAPK11 (11762145_a_at) / RFU FIZ1 (11724087_x_at) / Fold change /veh FIZ1 (11724087_x_at) / RFU OASL (11726364_x_at) / Fold change /veh OASL (11726364_x_at) / RFU SOX15 (11748057_x_at) / Fold change /veh SOX15 (11748057_x_at) / RFU CD79A (11719716_a_at) / Fold change /veh CD79A (11719716_a_at) / RFU HIST1H1D (11736915_at) / Fold change /veh HIST1H1D (11736915_at) / RFU CASKIN2 (11723855_a_at) / Fold change /veh CASKIN2 (11723855_a_at) / RFU LOC730098 (11760151_x_at) / Fold change /veh LOC730098 (11760151_x_at) / RFU OR4N2 (11742367_at) / Fold change /veh OR4N2 (11742367_at) / RFU PRRT2 (11749266_a_at) / Fold change /veh PRRT2 (11749266_a_at) / RFU SNX32 (11753110_a_at) / Fold change /veh SNX32 (11753110_a_at) / RFU CDHR5 (11726645_a_at) / Fold change /veh CDHR5 (11726645_a_at) / RFU RCAN1 (11760418_a_at) / Fold change /veh RCAN1 (11760418_a_at) / RFU FAM167A (11723789_a_at) / Fold change /veh FAM167A (11723789_a_at) / RFU FAM26E (11764081_at) / Fold change /veh FAM26E (11764081_at) / RFU ISYNA1 (11749810_s_at) / Fold change /veh ISYNA1 (11749810_s_at) / RFU ACY1 (11761880_at) / Fold change /veh ACY1 (11761880_at) / RFU 11764098_at / Fold change /veh 11764098_at / RFU SAMD14 (11745864_x_at) / Fold change /veh SAMD14 (11745864_x_at) / RFU NPB (11741838_a_at) / Fold change /veh NPB (11741838_a_at) / RFU TMPRSS6 (11731388_a_at) / Fold change /veh TMPRSS6 (11731388_a_at) / RFU KRTAP10-2 (11738614_at) / Fold change /veh KRTAP10-2 (11738614_at) / RFU ARHGAP8 /// PRR5-ARHGAP8 (11727945_x_at) / Fold change /veh ARHGAP8 /// PRR5-ARHGAP8 (11727945_x_at) / RFU KRTAP5-7 /// NADSYN1 (11734609_at) / Fold change /veh KRTAP5-7 /// NADSYN1 (11734609_at) / RFU RASL12 (11751679_a_at) / Fold change /veh RASL12 (11751679_a_at) / RFU CDKN2B (11736163_a_at) / Fold change /veh CDKN2B (11736163_a_at) / RFU PRF1 (11729649_at) / Fold change /veh PRF1 (11729649_at) / RFU, ZNF638 /// ZNF638-IT1 / Fold change vs veh, ZNF638 /// ZNF638-IT1 / RFU, PANK3 / Fold change vs veh, PANK3 / RFU, SH3YL1 / Fold change vs veh, SH3YL1 / RFU, ZEB2 / Fold change vs veh, ZEB2 / RFU, NRIP1 / Fold change vs veh, NRIP1 / RFU, PTTG1IP / Fold change vs veh, PTTG1IP / RFU, CAPN2 / Fold change vs veh, CAPN2 / RFU, MED14 / Fold change vs veh, MED14 / RFU, SNORA58 / Fold change vs veh, SNORA58 / RFU, C1orf63 / Fold change vs veh, C1orf63 / RFU, LRRFIP1 / Fold change vs veh, LRRFIP1 / RFU, NDUFAF7 / Fold change vs veh, NDUFAF7 / RFU, SLC12A2 / Fold change vs veh, SLC12A2 / RFU, IBTK / Fold change vs veh, IBTK / RFU, ESF1 / Fold change vs veh, ESF1 / Fold change vs veh, TMEM50B / RFU, TAOK1 / Fold change vs veh, TAOK1 / RFU, ACBD3 / Fold change vs veh, ACBD3 / RFU, TMA16 / Fold change vs veh, TMA16 / RFU, RWDD3 / Fold change vs veh, RWDD3 / RFU, BCAT1 / Fold change vs veh, BCAT1 / RFU, EDEM3 / Fold change vs veh, EDEM3 / RFU, TMEM33 / Fold change vs veh, TMEM33 / RFU, WDR75 / Fold change vs veh, WDR75 / RFU, AHCTF1 / Fold change vs veh, AHCTF1 / RFU, TFRC / Fold change vs veh, TFRC / RFU, ZDHHC17 / Fold change vs veh, ZDHHC17 / RFU, NOM1 / Fold change vs veh, NOM1 / RFU, ARL8B / Fold change vs veh, ARL8B / RFU, ZBTB11 / Fold change vs veh, ZBTB11 / RFU, TAMM41 / Fold change vs veh, TAMM41 / RFU, KIAA1704 /// LOC100996395 / Fold change vs veh, KIAA1704 /// LOC100996395 / RFU, ING1 / Fold change vs veh, ING1 / RFU, TRMT61B / Fold change vs veh, TRMT61B / RFU, FUBP3 / Fold change vs veh, FUBP3 / RFU, TP53 / Fold change vs veh, TP53 / RFU, TNKS2 / Fold change vs veh, TNKS2 / RFU, ZFP14 / Fold change vs veh, ZFP14 / RFU, ACTR2 / Fold change vs veh, ACTR2 / RFU, PPP3R1 / Fold change vs veh, PPP3R1 / RFU, PIK3R1 / Fold change vs veh, PIK3R1 / RFU, HNRNPA1 / Fold change vs veh, HNRNPA1 / RFU, RNF170 / Fold change vs veh, RNF170 / RFU, ZNF28 / Fold change vs veh, ZNF28 / RFU, RNGTT / Fold change vs veh, RNGTT / RFU, OGT / Fold change vs veh, OGT / RFU, BRD1 / Fold change vs veh, BRD1 / RFU, MARS / Fold change vs veh, MARS / RFU, ZNF655 / Fold change vs veh, ZNF655 / RFU, FAHD1 / Fold change vs veh, FAHD1 / RFU, BDP1 / Fold change vs veh, BDP1 / RFU, LRRCC1 / Fold change vs veh, LRRCC1 / RFU, ARID1A / Fold change vs veh, ARID1A / RFU, ZNF146 / Fold change vs veh, ZNF146 / RFU, ZNF330 / Fold change vs veh, ZNF330 / RFU, GPN3 / Fold change vs veh, GPN3 / RFU, C9orf123 / Fold change vs veh, C9orf123 / RFU, N4BP2L2 / Fold change vs veh, N4BP2L2 / RFU, ARFIP1 / Fold change vs veh, ARFIP1 / RFU, FAM179B / Fold change vs veh, FAM179B / RFU, BCL10 / Fold change vs veh, BCL10 / RFU, UHRF1BP1L / Fold change vs veh, UHRF1BP1L / RFU, BET1 / Fold change vs veh, BET1 / RFU, CNOT2 / Fold change vs veh, CNOT2 / RFU, ZNF268 / Fold change vs veh, ZNF268 / Fold change vs veh, ZNF507 / RFU, DGCR2 / Fold change vs veh, DGCR2 / RFU, WDSUB1 / Fold change vs veh, WDSUB1 / Fold change vs veh, HSP90B1 /// MIR3652 / RFU, ADSS / Fold change vs veh, ADSS / RFU, GK / Fold change vs veh, GK / RFU, ZNF148 / Fold change vs veh, ZNF148 / RFU, TAF9 / Fold change vs veh, TAF9 / RFU, SLC1A5 / Fold change vs veh, SLC1A5 / RFU, SLMO2 / Fold change vs veh, SLMO2 / RFU, ABCC4 / Fold change vs veh, ABCC4 / RFU, LOC101060439 /// RAP1B / Fold change vs veh, LOC101060439 /// RAP1B / RFU, RFX7 / Fold change vs veh, RFX7 / RFU, GTPBP10 / Fold change vs veh, GTPBP10 / RFU, CNEP1R1 / Fold change vs veh, CNEP1R1 / RFU, BIVM-ERCC5 /// ERCC5 / Fold change vs veh, BIVM-ERCC5 /// ERCC5 / RFU, ILF3 / Fold change vs veh, ILF3 / RFU 11762660_at / Fold change /veh 11762660_at / RFU VCAN (11757783_s_at) / Fold change /veh VCAN (11757783_s_at) / RFU DDX43 (11728927_at) / Fold change /veh DDX43 (11728927_at) / RFU KRT8 (11758188_x_at) / Fold change /veh KRT8 (11758188_x_at) / RFU NKD1 (11759106_at) / Fold change /veh NKD1 (11759106_at) / RFU SRD5A1 (11742802_a_at) / Fold change /veh SRD5A1 (11742802_a_at) / RFU TPSAB1 /// TPSB2 (11721975_s_at) / Fold change /veh TPSAB1 /// TPSB2 (11721975_s_at) / RFU GSTM3 (11746129_a_at) / Fold change /veh GSTM3 (11746129_a_at) / RFU IL23R (11737362_x_at) / Fold change /veh IL23R (11737362_x_at) / RFU TMEM51 (11727254_a_at) / Fold change /veh TMEM51 (11727254_a_at) / RFU PIWIL2 (11732686_x_at) / Fold change /veh PIWIL2 (11732686_x_at) / RFU ORM1 (11744905_x_at) / Fold change /veh ORM1 (11744905_x_at) / RFU CCDC152 (11743942_at) / Fold change /veh CCDC152 (11743942_at) / RFU ECM1 (11717891_a_at) / Fold change /veh ECM1 (11717891_a_at) / RFU IL23R (11748794_a_at) / Fold change /veh IL23R (11748794_a_at) / RFU TNFAIP8L3 (11732012_x_at) / Fold change /veh TNFAIP8L3 (11732012_x_at) / RFU MBOAT4 (11741988_at) / Fold change /veh MBOAT4 (11741988_at) / RFU 11764193_at / Fold change /veh 11764193_at / RFU TMEM53 (11763286_at) / Fold change /veh TMEM53 (11763286_at) / RFU MAGEB2 (11727129_at) / Fold change /veh MAGEB2 (11727129_at) / RFU TMEM200A (11744735_a_at) / Fold change /veh TMEM200A (11744735_a_at) / RFU CCDC152 (11751479_a_at) / Fold change /veh CCDC152 (11751479_a_at) / RFU FAM211A (11726209_a_at) / Fold change /veh FAM211A (11726209_a_at) / RFU RGS16 (11746705_a_at) / Fold change /veh RGS16 (11746705_a_at) / RFU VCAN (11755009_s_at) / Fold change /veh VCAN (11755009_s_at) / RFU RHOB (11743442_s_at) / Fold change /veh RHOB (11743442_s_at) / RFU RGS16 (11720943_a_at) / Fold change /veh RGS16 (11720943_a_at) / RFU RGS16 (11720944_at) / Fold change /veh RGS16 (11720944_at) / RFU, VPS4B / Fold change vs veh, VPS4B / RFU, CREB1 / Fold change vs veh, CREB1 / RFU, DNAJC13 / Fold change vs veh, DNAJC13 / RFU, GNAQ / Fold change vs veh, GNAQ / RFU, CDK5R1 / Fold change vs veh, CDK5R1 / RFU, ZRANB3 / Fold change vs veh, ZRANB3 / RFU, CUL4A / Fold change vs veh, CUL4A / RFU, CCNY / Fold change vs veh, CCNY / RFU, UFL1 / Fold change vs veh, UFL1 / RFU, COG3 / Fold change vs veh, COG3 / RFU, DIAPH2 / Fold change vs veh, DIAPH2 / RFU, SKA2 / Fold change vs veh, SKA2 / RFU, AFF3 / Fold change vs veh, AFF3 / RFU, LMF1 / Fold change vs veh, LMF1 / RFU, IPO11 / Fold change vs veh, IPO11 / RFU, DFFB / Fold change vs veh, DFFB / RFU, FOXP1 / Fold change vs veh, FOXP1 / RFU, CARD8 / Fold change vs veh, CARD8 / RFU, STRN3 / Fold change vs veh, STRN3 / RFU, ADK / Fold change vs veh, ADK / RFU, RASSF2 / Fold change vs veh, RASSF2 / RFU, WIPF1 / Fold change vs veh, WIPF1 / RFU, LARP1B / Fold change vs veh, LARP1B / RFU, RASA1 / Fold change vs veh, RASA1 / RFU, RB1 / Fold change vs veh, RB1 / RFU, PPFIA1 / Fold change vs veh, PPFIA1 / RFU, MAT2A / Fold change vs veh, MAT2A / RFU, CCT5 / Fold change vs veh, CCT5 / RFU, WDR92 / Fold change vs veh, WDR92 / RFU, CUX1 / Fold change vs veh, CUX1 / RFU, TTC7A / Fold change vs veh, TTC7A / RFU, TMEM135 / Fold change vs veh, TMEM135 / RFU, DEPTOR / Fold change vs veh, DEPTOR / RFU, CPM / Fold change vs veh, CPM / RFU, DNAJB6 / Fold change vs veh, DNAJB6 / RFU, CACNA2D3 / Fold change vs veh, CACNA2D3 / RFU, DTX4 / Fold change vs veh, DTX4 / RFU, TFCP2 / Fold change vs veh, TFCP2 / RFU, GMCL1 /// GMCL1P1 / Fold change vs veh, GMCL1 /// GMCL1P1 / RFU, AEBP2 / Fold change vs veh, AEBP2 / RFU, SNHG1 /// SNORD22 /// SNORD25 /// SNORD26 /// SNORD27 /// SNORD28 /// SNORD29 /// SNORD31 / Fold change vs veh, SNHG1 /// SNORD22 /// SNORD25 /// SNORD26 /// SNORD27 /// SNORD28 /// SNORD29 /// SNORD31 / Fold change (Aza/veh), C12orf56 (ProbeSet 11735607_a_at) / Fold change (ACY-1035/veh), C12orf56 (ProbeSet 11735607_a_at) / Fold change (Aza/veh), FGFR1OP (ProbeSet 11751329_s_at) / Fold change (ACY-1035/veh), FGFR1OP (ProbeSet 11751329_s_at) / Fold change (Aza/veh), VPS36 (ProbeSet 11739960_a_at) / Fold change (ACY-1035/veh), VPS36 (ProbeSet 11739960_a_at) / RFU SYPL1 (11715823_x_at) / Fold change /veh SYPL1 (11715823_x_at) / RFU IGFBP7 (11715501_s_at) / Fold change /veh IGFBP7 (11715501_s_at) / RFU REEP3 (11722064_at) / Fold change /veh REEP3 (11722064_at) / RFU IGLL1 (11728026_x_at) / Fold change /veh IGLL1 (11728026_x_at): dose or concentration left out as unconfirmed
Details: MV-4-11 cells, 48 hours

Q: `Nc1ccc(-c2cccs2)cc1NC(=O)c1ccc2c(c1)cc(C1CC1)n2CCN1CCOCC1` [ACY-1035] was tested. Which “Fold change /veh VCAN (11748164_a_at)” value did it give?
A: 1.07
